Experimental data as given in BigSolDB 2.1.

CC(C)(N)C(=O)O
solubility (mole fraction)
Details	283.15 K	288.15 K	293.15 K	298.15 K	303.15 K	308.15 K	313.15 K	318.15 K	323.15 K
in 2-butanone	0.000215	0.000258	0.000319	0.000415	0.000507	0.000599	0.00068	0.000803	0.000946
in DMF	5.8e-05	0.00019	0.000365	0.00067	0.00102	0.00163	0.00245	0.00356	0.00462
in acetone	6e-05	9.7e-05	0.00016	0.000211	0.000253	0.000319	0.000386	0.000442	0.000501
in acetonitrile	0.000123	0.00014	0.000163	0.000189	0.000218	0.00024	0.000277	0.000317	0.000366
in ethanol	0.000102	0.000183	0.000277	0.000376	0.000479	0.000579	0.000669	0.000763	0.000879
in ethyl acetate	0.000164	0.000246	0.000353	0.000507	0.000635	0.000808	0.000949	0.00111	0.00137
in isopropanol	0.000157	0.000176	0.000198	0.000227	0.000275	0.000336	0.000396	0.000466	0.000576
in methanol	0.000625	0.000658	0.000715	0.000792	0.000878	0.000947	0.00106	0.00117	0.0013
in methyl acetate	6.8e-05	0.000102	0.00013	0.000168	0.00021	0.000248	0.000306	0.000364	0.000436
in n-butanol	0.000158	0.000219	0.00027	0.000334	0.00043	0.000518	0.00065	0.000783	0.000963
in n-pentanol	0.0002	0.000248	0.000302	0.000369	0.000448	0.000523	0.000616	0.000721	0.000843
in n-propanol	0.00015	0.000207	0.000302	0.000388	0.000466	0.000553	0.000659	0.000774	0.000945
in water	0.0256	0.0259	0.0261	0.0266	0.0269	0.0273	0.0276	0.0282	0.0291
